Earlier results in patent US7294691B1, “Soluble secreted α2δ-2calcium channel subunit polypeptide” (Warner Lambert Company, priority 2000, dated 2007).

Tested on: [^3H]gabapentin binding site
Settings: saturation binding in the presence of L-leucine; reduces [^3H]gabapentin binding affinity

interaction with the [^3H]gabapentin binding site: competitive interaction
SMILES: CC(C)C[C@H](N)C(=O)O [L-Leucine]
